Assays:
[1] = molecular target: T1, Xanthine dehydrogenase/oxidase (Bos taurus, UniProt P80457); test: Compound was tested for the inhibition of xanthine oxidase; Inactive
[2] = molecular target: T1, Xanthine dehydrogenase/oxidase; test: Compound was tested for the inhibition of xanthine oxidase; Active

T1 sequence (P80457 whole entry): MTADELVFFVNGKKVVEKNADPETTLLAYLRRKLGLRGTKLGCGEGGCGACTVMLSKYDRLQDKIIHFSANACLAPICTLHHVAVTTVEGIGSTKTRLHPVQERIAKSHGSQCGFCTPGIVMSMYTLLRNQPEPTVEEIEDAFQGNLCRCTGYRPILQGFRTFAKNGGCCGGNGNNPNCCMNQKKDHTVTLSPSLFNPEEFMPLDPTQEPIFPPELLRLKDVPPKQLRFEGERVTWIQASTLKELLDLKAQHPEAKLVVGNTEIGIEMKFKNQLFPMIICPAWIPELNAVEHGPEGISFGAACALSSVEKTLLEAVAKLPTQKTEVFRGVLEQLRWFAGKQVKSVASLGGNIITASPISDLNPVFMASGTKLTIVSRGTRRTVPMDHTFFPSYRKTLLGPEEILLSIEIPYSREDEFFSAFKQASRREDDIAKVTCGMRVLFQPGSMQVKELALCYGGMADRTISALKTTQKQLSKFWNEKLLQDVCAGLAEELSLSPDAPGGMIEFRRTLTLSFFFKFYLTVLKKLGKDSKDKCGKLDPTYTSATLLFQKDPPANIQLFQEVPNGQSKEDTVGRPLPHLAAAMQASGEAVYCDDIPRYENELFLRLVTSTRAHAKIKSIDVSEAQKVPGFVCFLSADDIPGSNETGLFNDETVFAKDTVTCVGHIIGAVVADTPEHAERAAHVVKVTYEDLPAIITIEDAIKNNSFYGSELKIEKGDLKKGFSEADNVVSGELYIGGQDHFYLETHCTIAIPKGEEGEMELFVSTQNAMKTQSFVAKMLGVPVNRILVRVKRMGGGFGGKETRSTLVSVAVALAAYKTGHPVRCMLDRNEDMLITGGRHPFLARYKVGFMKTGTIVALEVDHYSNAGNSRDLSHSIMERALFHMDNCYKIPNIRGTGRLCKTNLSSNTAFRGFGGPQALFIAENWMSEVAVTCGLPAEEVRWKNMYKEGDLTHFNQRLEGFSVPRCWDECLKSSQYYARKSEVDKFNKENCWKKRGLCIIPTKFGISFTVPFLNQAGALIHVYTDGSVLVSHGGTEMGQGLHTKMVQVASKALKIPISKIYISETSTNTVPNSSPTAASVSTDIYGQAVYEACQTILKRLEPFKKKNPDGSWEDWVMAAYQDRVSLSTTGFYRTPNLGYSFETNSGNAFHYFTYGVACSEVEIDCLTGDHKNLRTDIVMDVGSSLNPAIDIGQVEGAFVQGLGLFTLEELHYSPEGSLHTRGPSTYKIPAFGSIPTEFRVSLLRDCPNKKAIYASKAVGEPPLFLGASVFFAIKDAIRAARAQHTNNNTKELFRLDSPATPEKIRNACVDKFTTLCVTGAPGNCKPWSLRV

Row | Structure (SMILES) | Activity [1] | Activity [2]
1 | O=C1COC(O)=C1O | Not Active | –
2 | O=C1O[C@H]([C@@H](O)CO)C(O)=C1O [ASCORBIC ACID] | Not Active | –
3 | O=C1CCC(O)=C1O | – | Active
